Measurements taken from patent US20050113319A1, “11-Deoxy-6,9-ether erythromycin compounds” (priority 2003, published 2005).
Values after ≈ are worked out from the molar mass of the structure shown. Where two headings read alike, the source gives them in different places.

Tests used:
[1] = target: T1, motilin receptor (Homo sapiens, UniProt O43193); assay: Motilin agonist activity (activation of the motilin receptor); assay type: cell-based
Description: Compounds of this invention were tested for motilin agonist activity, following the procedure of Carreras et al., Anal. Biochem., 300, 146-151 (2002), the disclosure of which is incorporated herein by reference.

[2] = tested on: Streptococcus pneumoniae ATCC 6301; assay: In vitro antibacterial activity; assay type: cell-based; conditions: ATCC6301
Description: Compounds of this invention were tested for in vitro activity against Streptococcus pneumoniae ATCC 6301, an erythromycin-sensitive strain, using methods known in the microbiological art.

[3] = target: T1, motilin receptor; assay: Motilin receptor desensitization, cell-based assay; conditions: for Activity retained following exposure, 1 μM Compound: motilin receptor activity retained after exposure to 1 μM test compound; for Activity retained following exposure, 10 μM Compound: motilin receptor activity retained after exposure to 10 μM test compound
Description: Compounds were tested for motilin receptor desensitization using the cell-based assay described in Carreras et al., U.S. 2002/0192709 A1 (2002), “Methods for Evaluating Therapeutic Efficacy,” incorporated herein by reference. Briefly, the test measures the extent of motilin receptor activity retained after exposure to varying amounts (1 and 10 μM) of test compound.

T1 sequence (O43193 whole entry): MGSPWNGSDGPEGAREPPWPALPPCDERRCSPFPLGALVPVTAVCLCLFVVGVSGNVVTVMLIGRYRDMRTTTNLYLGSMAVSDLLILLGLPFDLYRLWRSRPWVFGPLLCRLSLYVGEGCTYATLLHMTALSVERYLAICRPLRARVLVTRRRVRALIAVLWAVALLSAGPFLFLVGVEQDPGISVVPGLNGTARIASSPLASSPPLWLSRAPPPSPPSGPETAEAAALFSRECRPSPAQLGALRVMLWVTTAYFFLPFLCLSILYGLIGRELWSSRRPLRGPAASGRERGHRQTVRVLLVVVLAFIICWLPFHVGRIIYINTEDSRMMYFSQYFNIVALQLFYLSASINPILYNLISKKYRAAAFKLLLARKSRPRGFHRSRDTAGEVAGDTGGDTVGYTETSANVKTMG

CC[C@H]1OC(=O)[C@H](C)[C@@H](O[C@H]2C[C@@](C)(OC)C[C@H](C)O2)[C@H](C)[C@@H](O[C@@H]2O[C@H](C)C[C@H](N(C)C)[C@H]2O)[C@@]2(C)C[C@@H](C)[C@H](O2)[C@H](C)C[C@H]1C [Compound IVa]
EC50 [1]: 42 nM
MIC ([2]; Streptococcus pneumoniae): 25 µg/mL (≈ 37.3 µM)
Activity retained following exposure, 1 μM Compound [3]: 24 % of original
Activity retained following exposure, 10 μM Compound [3]: 7 % of original

CC[C@H]1OC(=O)[C@H](C)[C@@H](O[C@H]2C[C@@](C)(OC)C[C@H](C)O2)[C@H](C)[C@@H](O[C@@H]2O[C@H](C)C[C@H](N(C)C(C)C)[C@H]2O)[C@@]2(C)C[C@@H](C)[C@H](O2)[C@H](C)C[C@H]1C [Compound IVc]
EC50 [1]: 13 nM
MIC ([2]; Streptococcus pneumoniae): 50 µg/mL (≈ 71.6 µM)
Activity retained following exposure, 1 μM Compound [3]: 9 % of original
Activity retained following exposure, 10 μM Compound [3]: 5 % of original

CC[C@H]1OC(=O)[C@H](C)[C@@H](O[C@H]2C[C@@](C)(OC)[C@@H](O)[C@H](C)O2)[C@H](C)[C@@H](O[C@@H]2O[C@H](C)C[C@H](N(C)C)[C@H]2O)[C@@]2(C)C[C@@H](C)[C@H](O2)[C@H](C)C[C@H]1C [Compound IVb]
EC50 [1]: 230 nM
MIC ([2]; Streptococcus pneumoniae): 100 µg/mL (≈ 146 µM)
Activity retained following exposure, 1 μM Compound [3]: 57 % of original
Activity retained following exposure, 10 μM Compound [3]: 49 % of original

CC[C@H]1OC(=O)[C@H](C)[C@@H](O[C@H]2C[C@@](C)(OC)C[C@H](C)O2)[C@H](C)[C@@H](O[C@@H]2O[C@H](C)C[C@H](N(C)CCF)[C@H]2O)[C@@]2(C)C[C@@H](C)[C@H](O2)[C@H](C)C[C@H]1C [Compound IVd]
EC50 [1]: 45 nM
MIC ([2]; Streptococcus pneumoniae ATCC 6301, erythromycin-sensitive strain, read-out: MIC): > 100 µg/mL
Activity retained following exposure, 1 μM Compound [3]: 7 % of original
Activity retained following exposure, 10 μM Compound [3]: 5 % of original
